Results from PMC7509852 (Biochemistry, 2020).

Assays:
Cj1427 [1] = molecular target: T1, Cj1427 (Campylobacter jejuni, UniProt Q0P8I7); assay: UV-vis spectrum of bound cofactor; format: biochemical; details: NAD+-bound enzyme; 2.0 mM substrate; 50 mM HEPES/KCl pH 7.4, 30 °C
Cj1427 [2] = molecular target: T1, Cj1427; assay: UV-vis loss of […] nm band; format: biochemical; details: NADH-bound enzyme; 2.0 mM substrate; 50 mM HEPES/KCl pH 7.4, 30 °C

T1 sequence (Q0P8I7 whole entry): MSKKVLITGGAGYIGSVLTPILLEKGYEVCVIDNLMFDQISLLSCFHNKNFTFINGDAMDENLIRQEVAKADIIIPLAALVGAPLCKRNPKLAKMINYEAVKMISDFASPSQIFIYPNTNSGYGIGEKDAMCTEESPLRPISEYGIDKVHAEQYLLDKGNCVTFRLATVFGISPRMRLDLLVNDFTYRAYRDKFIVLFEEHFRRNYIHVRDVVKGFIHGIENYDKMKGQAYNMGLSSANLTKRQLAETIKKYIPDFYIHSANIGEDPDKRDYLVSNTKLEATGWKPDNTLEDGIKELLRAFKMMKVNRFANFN

Compound	UV-vis spectrum of bound cofactor (Cj1427 [1])	UV-vis loss of 350 nm band; ion exchange chromatography (Cj1427 [2])
O=C(O)CC[C@H](O)C(=O)O [L-2-hydroxyglutarate]	Cj1427 with bound NAD^+ catalyzes the oxidation of L-2-hydroxyglutarate to α-ketoglutarate and NADH	
O=C(O)CCC(=O)C(=O)O [α-ketoglutarate]		initially bound NADH was converted to NAD^+ in the presence of α-ketoglutarate
